Measured values as given in PMC11124822, “Discovery and Anticancer Screening of Novel Oxindole-Based Derivative Bearing Pyridyl Group as Potent and Selective Dual FLT3/CDK2 Kinase Inhibitor” (Pharmaceuticals, 2024).

Assays:
[1] = system: UACC-257; test: NCI-60 antiproliferative screen (SRB); assay type: cell-based, human; details: Homo sapiens; 10 µM single dose, 48 h; UACC-257 (Melanoma); read-out: Growth inhibition (%)
[2] = system: CCRF-CEM; test: NCI-60 antiproliferative screen (SRB); assay type: cell-based, human; details: Homo sapiens; 10 µM single dose, 48 h; CCRF-CEM (Leukemia); read-out: Growth inhibition (%)
[3] = system: KM12; test: NCI-60 antiproliferative screen (SRB); assay type: cell-based, human; details: Homo sapiens; 10 µM single dose, 48 h; KM12 (Colon); read-out: Growth inhibition (%)
[4] = system: NCI-H522; test: NCI-60 antiproliferative screen (SRB); assay type: cell-based, human; details: Homo sapiens; 10 µM single dose, 48 h; NCI-H522 (NSCLC); read-out: Growth inhibition (%)
[5] = system: RPMI-8226; test: NCI-60 antiproliferative screen (SRB); assay type: cell-based, human; details: Homo sapiens; 10 µM single dose, 48 h; RPMI-8226 (Leukemia); read-out: Growth inhibition (%)
[6] = system: EKVX; test: NCI-60 antiproliferative screen (SRB); assay type: cell-based, human; details: Homo sapiens; 10 µM single dose, 48 h; EKVX (NSCLC); read-out: Growth inhibition (%)
[7] = system: SNB-19; test: NCI-60 antiproliferative screen (SRB); assay type: cell-based, human; details: Homo sapiens; 10 µM single dose, 48 h; SNB-19 (CNS); read-out: Growth inhibition (%)
[8] = system: MDA-MB-231; test: NCI-60 antiproliferative screen (SRB); assay type: cell-based, human; details: Homo sapiens; 10 µM single dose, 48 h; MDA-MB-231 (Breast); read-out: Growth inhibition (%)
[9] = system: A498; test: NCI-60 antiproliferative screen (SRB); assay type: cell-based, human; details: Homo sapiens; 10 µM single dose, 48 h; A498 (Renal); read-out: Growth inhibition (%)
[10] = system: SF-268; test: NCI-60 antiproliferative screen (SRB); assay type: cell-based, human; details: Homo sapiens; 10 µM single dose, 48 h; SF-268 (CNS); read-out: Growth inhibition (%)
[11] = system: SK-MEL-28; test: NCI-60 antiproliferative screen (SRB); assay type: cell-based, human; details: Homo sapiens; 10 µM single dose, 48 h; SK-MEL-28 (Melanoma); read-out: Growth inhibition (%)
[12] = system: RXF 393; test: NCI-60 antiproliferative screen (SRB); assay type: cell-based, human; details: Homo sapiens; 10 µM single dose, 48 h; RXF 393 (Renal); read-out: Growth inhibition (%)
[13] = system: M14; test: NCI-60 antiproliferative screen (SRB); assay type: cell-based, human; details: Homo sapiens; 10 µM single dose, 48 h; M14 (Melanoma); read-out: Growth inhibition (%)
[14] = system: T-47D; test: NCI-60 antiproliferative screen (SRB); assay type: cell-based, human; details: Homo sapiens, T47D; 10 µM single dose, 48 h; T-47D (Breast); read-out: Growth inhibition (%)
[15] = system: HOP-92; test: NCI-60 antiproliferative screen (SRB); assay type: cell-based, human; details: Homo sapiens; 10 µM single dose, 48 h; HOP-92 (NSCLC); read-out: Growth inhibition (%)
[16] = system: COLO 205; test: NCI-60 antiproliferative screen (SRB); assay type: cell-based, human; details: Homo sapiens; 10 µM single dose, 48 h; COLO 205 (Colon); read-out: Growth inhibition (%)
[17] = system: UACC-62; test: NCI-60 antiproliferative screen (SRB); assay type: cell-based, human; details: Homo sapiens; 10 µM single dose, 48 h; UACC-62 (Melanoma); read-out: Growth inhibition (%)
[18] = system: SR; test: NCI-60 antiproliferative screen (SRB); details: Homo sapiens, 48 h, read-out: Growth inhibition (%)
Experimental: Anticancer activity was tested against 60 cancer cell lines (NCI-60) after 48h treatments with a single dosage of 10 μM of compounds by using sulforhodamine B assay [39] on the traditional 96-well platform. […] The human cancer cell lines of the NCI-60 panel are grown in RPMI 1640 medium supplemented with 5% FBS (fetal bovine serum) and 2 mM L-glutamine. […] For further analysis of promising compounds, five dose screens were performed against the NCI-60 panel. Drug treatments are performed in 5 doses using 10-fold or ½ log dose dilutions.

[19] = system: UO-31; test: NCI-60 antiproliferative screen (SRB); assay type: cell-based, human; details: Homo sapiens; 10 µM single dose, 48 h; UO-31 (Renal); read-out: Growth inhibition (%)
[20] = system: SK-MEL-5; test: NCI-60 antiproliferative screen (SRB); assay type: cell-based, human; details: Homo sapiens; 10 µM single dose, 48 h; SK-MEL-5 (Melanoma); read-out: Growth inhibition (%)
[21] = system: HOP-62; test: NCI-60 antiproliferative screen (SRB); assay type: cell-based, human; details: Homo sapiens; 10 µM single dose, 48 h; HOP-62 (NSCLC); read-out: Growth inhibition (%)
[22] = system: NCI-H460; test: NCI-60 antiproliferative screen (SRB); assay type: cell-based, human; details: Homo sapiens; 10 µM single dose, 48 h; NCI-H460 (NSCLC); read-out: Growth inhibition (%)
[23] = system: TK-10; test: NCI-60 antiproliferative screen (SRB); assay type: cell-based, human; details: Homo sapiens; 10 µM single dose, 48 h; TK-10 (Renal); read-out: Growth inhibition (%)
[24] = system: IGROV1; test: NCI-60 antiproliferative screen (SRB); assay type: cell-based, human; details: Homo sapiens, IGROV-1; 10 µM single dose, 48 h; IGROV1 (Ovarian); read-out: Growth inhibition (%)
[25] = system: OVCAR-4; test: NCI-60 antiproliferative screen (SRB); details: Homo sapiens, OVCAR-4, 48 h, read-out: Growth inhibition (%)
[26] = system: ACHN; test: NCI-60 antiproliferative screen (SRB); assay type: cell-based, human; details: Homo sapiens; 10 µM single dose, 48 h; ACHN (Renal); read-out: Growth inhibition (%)
[27] = system: NCI/ADR-RES; test: NCI-60 antiproliferative screen (SRB); assay type: cell-based, human; details: Homo sapiens; 10 µM single dose, 48 h; NCI/ADR-RES (Ovarian); read-out: Growth inhibition (%)
[28] = system: MCF7; test: NCI-60 antiproliferative screen (SRB); assay type: cell-based, human; details: Homo sapiens; 10 µM single dose, 48 h; MCF7 (Breast); read-out: Growth inhibition (%)
[29] = system: OVCAR-5; test: NCI-60 antiproliferative screen (SRB); assay type: cell-based, human; details: Homo sapiens; 10 µM single dose, 48 h; OVCAR-5 (Ovarian); read-out: Growth inhibition (%)
[30] = system: SK-OV-3; test: NCI-60 antiproliferative screen (SRB); assay type: cell-based, human; details: Homo sapiens; 10 µM single dose, 48 h; SK-OV-3 (Ovarian); read-out: Growth inhibition (%)

O=C1Nc2ccccc2C1=Cc1ccc(OCc2ccccc2)cc1 (mixture of isomers) [Compound 5a, (E/Z)-3-[4-(Benzyloxy)benzylidene] indolin-2-one]
inhibition at 10 µM [1]: -9.45%
inhibition at 10 µM [2]: 0.52%
inhibition at 10 µM [3]: -3.15%
inhibition at 10 µM [4]: 2.18%
inhibition at 10 µM [5]: 1.13%
inhibition at 10 µM [6]: 0.69%
inhibition at 10 µM [7]: 2.17%
inhibition at 10 µM [8]: -10%
inhibition at 10 µM [9]: 7.9%
inhibition at 10 µM [10]: -1.74%
inhibition at 10 µM [11]: -7.21%
inhibition at 10 µM [12]: -16.2%
inhibition at 10 µM [13]: 5.67%
inhibition at 10 µM [14]: 0.85%
inhibition at 10 µM [15]: -7%
inhibition at 10 µM [16]: -13.1%
inhibition at 10 µM [17]: 6.11%
inhibition at 10 µM [18]: 14.6%
inhibition at 10 µM [19]: 14.9%
inhibition at 10 µM [20]: 1.96%
inhibition at 10 µM [21]: -4.06%
inhibition at 10 µM [22]: -8.64%
inhibition at 10 µM [23]: -8.25%
inhibition at 10 µM [24]: -9.53%
inhibition at 10 µM [25]: -7.99%
inhibition at 10 µM [26]: -4.27%
inhibition at 10 µM [27]: -0.55%
inhibition at 10 µM [28]: 15.8%
inhibition at 10 µM [29]: -2.24%
inhibition at 10 µM [30]: -5.78%
melting point: 220 to 223 °C

O=C1Nc2ccc(F)cc2C1=Cc1ccc(OCc2ccccc2)cc1 (mixture of isomers) [Compound 5b, (E/Z)-3-[4-(Benzyloxy)benzylidene]-5-fluoroindolin-2-one]
inhibition at 10 µM [1]: 2.53%
inhibition at 10 µM [2]: -10.8%
inhibition at 10 µM [3]: 2.42%
inhibition at 10 µM [4]: 5.91%
inhibition at 10 µM [5]: 2.59%
inhibition at 10 µM [6]: 0.65%
inhibition at 10 µM [7]: 1.26%
inhibition at 10 µM [8]: 2.43%
inhibition at 10 µM [10]: 5.43%
inhibition at 10 µM [11]: 2.92%
inhibition at 10 µM [12]: 0.31%
inhibition at 10 µM [13]: 3.39%
inhibition at 10 µM [14]: 3.79%
inhibition at 10 µM [15]: 4.77%
inhibition at 10 µM [16]: 1.92%
inhibition at 10 µM [17]: 4.38%
inhibition at 10 µM [18]: -0.14%
inhibition at 10 µM [19]: 2.55%
inhibition at 10 µM [20]: -0.59%
inhibition at 10 µM [21]: -1.2%
inhibition at 10 µM [22]: -0.94%
inhibition at 10 µM [23]: 4.82%
inhibition at 10 µM [24]: 2.92%
inhibition at 10 µM [25]: 0.82%
inhibition at 10 µM [26]: -7.3%
inhibition at 10 µM [27]: 0.01%
inhibition at 10 µM [28]: 7.57%
inhibition at 10 µM [29]: -0.99%
inhibition at 10 µM [30]: 0.16%
melting point: 244 to 248 °C

O=C1Nc2cc(Cl)ccc2C1=Cc1ccc(OCc2ccccn2)cc1 (mixture of isomers) [Compound 5h, (E/Z)-6-Chloro-3-[4-(pyridin-2-ylmethoxy)benzylidene]indolin-2-one]
inhibition at 10 µM [1]: -2.1%
inhibition at 10 µM [2]: 53.7%
inhibition at 10 µM [3]: 21.6%
inhibition at 10 µM [4]: 31.6%
inhibition at 10 µM [5]: 32.4%
inhibition at 10 µM [6]: 49.4%
inhibition at 10 µM [7]: 20%
inhibition at 10 µM [9]: -11.5%
inhibition at 10 µM [10]: 23.2%
inhibition at 10 µM [11]: -8.02%
inhibition at 10 µM [12]: 38.2%
inhibition at 10 µM [13]: 20%
inhibition at 10 µM [14]: 38%
inhibition at 10 µM [15]: 35.8%
inhibition at 10 µM [16]: -3.47%
inhibition at 10 µM [17]: 49.6%
inhibition at 10 µM [18]: 42.8%
inhibition at 10 µM [19]: 38%
inhibition at 10 µM [20]: 24%
inhibition at 10 µM [21]: 18.9%
inhibition at 10 µM [22]: 56.7%
inhibition at 10 µM [23]: -0.24%
inhibition at 10 µM [24]: 26.2%
inhibition at 10 µM [25]: 75.8%
inhibition at 10 µM [26]: 9.61%
inhibition at 10 µM [27]: 39%
inhibition at 10 µM [28]: 63.7%
inhibition at 10 µM [29]: 15.6%
inhibition at 10 µM [30]: 4.39%
melting point: 260 to 263 °C

O=C1Nc2ccc(Cl)cc2C1=Cc1ccc(OCc2ccccn2)cc1 (mixture of isomers) [Compound 5g, (E/Z)-5-Chloro-3-[4-(pyridin-2-ylmethoxy)benzylidene] indolin-2-one]
inhibition at 10 µM [1]: -18.2%
inhibition at 10 µM [2]: 16.8%
inhibition at 10 µM [3]: 21.2%
inhibition at 10 µM [4]: 34%
inhibition at 10 µM [5]: 26.1%
inhibition at 10 µM [6]: 34.3%
inhibition at 10 µM [7]: 49.3%
inhibition at 10 µM [8]: 78.3%
inhibition at 10 µM [9]: 54.9%
inhibition at 10 µM [10]: 20.7%
inhibition at 10 µM [11]: -0.48%
inhibition at 10 µM [13]: 10.1%
inhibition at 10 µM [14]: 31%
inhibition at 10 µM [15]: 27.9%
inhibition at 10 µM [16]: 10.9%
inhibition at 10 µM [17]: 33.3%
inhibition at 10 µM [18]: 45.1%
inhibition at 10 µM [19]: 40.5%
inhibition at 10 µM [20]: 10.5%
inhibition at 10 µM [21]: 54.4%
inhibition at 10 µM [22]: 84%
inhibition at 10 µM [23]: 9.89%
inhibition at 10 µM [24]: 45.4%
inhibition at 10 µM [25]: 102%
inhibition at 10 µM [26]: 43%
inhibition at 10 µM [27]: 85.9%
inhibition at 10 µM [28]: 71.1%
inhibition at 10 µM [29]: 11.8%
inhibition at 10 µM [30]: 10.8%
melting point: 219 to 220 °C

O=C1Nc2ccccc2C1=Cc1ccc(OCc2ccccn2)cc1 (mixture of isomers) [Compound 5e, (E/Z)-3-[4-(Pyridin-2-ylmethoxy]benzylidene) indolin-2-one]
inhibition at 10 µM [1]: 12.6%
inhibition at 10 µM [2]: 57.7%
inhibition at 10 µM [3]: 61.3%
inhibition at 10 µM [4]: 24.6%
inhibition at 10 µM [5]: 64%
inhibition at 10 µM [6]: 47.3%
inhibition at 10 µM [7]: 39.3%
inhibition at 10 µM [9]: 16.4%
inhibition at 10 µM [10]: 27.3%
inhibition at 10 µM [11]: -0.76%
inhibition at 10 µM [12]: 44.8%
inhibition at 10 µM [13]: 8.3%
inhibition at 10 µM [14]: 54.9%
inhibition at 10 µM [15]: 69%
inhibition at 10 µM [16]: -14.7%
inhibition at 10 µM [17]: 40.4%
inhibition at 10 µM [18]: 57.7%
inhibition at 10 µM [19]: 61.2%
inhibition at 10 µM [20]: 48.4%
inhibition at 10 µM [21]: 25.6%
inhibition at 10 µM [22]: 15%
inhibition at 10 µM [23]: 12.7%
inhibition at 10 µM [24]: 36.8%
inhibition at 10 µM [25]: 30.8%
inhibition at 10 µM [26]: 33.6%
inhibition at 10 µM [27]: 46.7%
inhibition at 10 µM [28]: 50.8%
inhibition at 10 µM [29]: 5.53%
inhibition at 10 µM [30]: 16.8%
melting point: 221 to 224 °C
